Reference: paper PMC2939063, “In Vitro and In Vivo Studies of the Trypanocidal Properties of WRR-483 against Trypanosoma cruzi” (PLoS Neglected Tropical Diseases, 2010)
“And” between values parts separate entries of the source, which are not always exact repeats. Equal values may be shown once.

Columns and labels:
[1] = target: T1, Cruzain (Trypanosoma cruzi, UniProt P25779); assay: Cruzain enzyme assay (acetate buffer pH 5.5, Z-Phe-Arg-AMC); format: biochemical; conditions: 100 mM sodium acetate pH 5.5, 5 mM DTT
T1 construct: made in house
Method: Cruzain[27],[28], rhodesain [29], and tbcatB [30] were recombinantly expressed as described previously. TbcatB assays were performed as described previously.[31] Cruzain (2 nM) or rhodesain (3 nM) was incubated with 0.5 to 10 µM inhibitor concentration in 100 mM sodium acetate at pH 5.5, containing 5 mM DTT (buffer A) for 5 min at room temperature. Then buffer A containing Z-Phe-Arg-AMC (Bachem, K M = 1 µM) was added to enzyme inhibitor to give 20 µM substrate concentration in 200 µL, and the increase in fluorescence (excitation at 355 nm and emission at 460 nm) was followed with an automated microtiter plate spectrofluorometer (Molecular Devices, Flex station). Inhibitor stock solutions were prepared at 20 mM in DMSO, and serial dilutions were made in DMSO (0.7% DMSO in assay). Controls were performed using enzyme alone and enzyme with DMSO. IC50 values were determined graphically using inhibitor concentrations in the linear portion of a plot of inhibition versus log[I] […]
Inhibitor dilutions which produce simple exponential progress curves over a wide range of k obs, were used to determine kinetic parameters. The value of k obs, the rate constant for loss of enzyme activity, was determined from an equation for pseudo first order dynamics using Prism 4.0 (GraphPad). When k obs varied linearly with inhibitor concentration, k ass was determined by linear regression analysis. […]

[2] = target: T2, Rhodesain (Trypanosoma brucei rhodesiense, UniProt Q95PM0); assay: Rhodesain enzyme assay (acetate buffer pH 5.5, Z-Phe-Arg-AMC); format: biochemical, T. brucei
T2 construct: made in house
Method: (§1) Cruzain[27],[28], rhodesain [29], and tbcatB [30] were recombinantly expressed as described previously. TbcatB assays were performed as described previously.[31] Cruzain (2 nM) or rhodesain (3 nM) was incubated with 0.5 to 10 µM inhibitor concentration in 100 mM sodium acetate at pH 5.5, containing 5 mM DTT (buffer A) for 5 min at room temperature. Then buffer A containing Z-Phe-Arg-AMC (Bachem, K M = 1 µM) was added to enzyme inhibitor to give 20 µM substrate concentration in 200 µL, and the increase in fluorescence (excitation at 355 nm and emission at 460 nm) was followed with an automated microtiter plate spectrofluorometer (Molecular Devices, Flex station). Inhibitor stock solutions were prepared at 20 mM in DMSO, and serial dilutions were made in DMSO (0.7% DMSO in assay). Controls were performed using enzyme alone and enzyme with DMSO. IC50 values were determined graphically using inhibitor concentrations in the linear portion of a plot of inhibition versus log[I] (seven concentrations tested with at least two in the linear range).
(§2) Inhibitor dilutions which produce simple exponential progress curves over a wide range of k obs, were used to determine kinetic parameters. The value of k obs, the rate constant for loss of enzyme activity, was determined from an equation for pseudo first order dynamics using Prism 4.0 (GraphPad). When k obs varied linearly with inhibitor concentration, k ass was determined by linear regression analysis. If the variation was hyperbolic, indicating saturation inhibition kinetics, k inact and K i were determined from an equation describing a two-step irreversible inhibitor mechanism [k obs = k inact [I]o/([I]o+Ki* (1+[S]o/K M))] and non-linear regression analysis Prism 4.0.[32] All values were corrected for substrate concentration.

[3] = target: T3, tbcatB (Trypanosoma brucei, UniProt Q6R7Z5); assay: tbcatB enzyme assay; format: biochemical
T3 construct: made in house
T3 sequence (Q6R7Z5 23-340): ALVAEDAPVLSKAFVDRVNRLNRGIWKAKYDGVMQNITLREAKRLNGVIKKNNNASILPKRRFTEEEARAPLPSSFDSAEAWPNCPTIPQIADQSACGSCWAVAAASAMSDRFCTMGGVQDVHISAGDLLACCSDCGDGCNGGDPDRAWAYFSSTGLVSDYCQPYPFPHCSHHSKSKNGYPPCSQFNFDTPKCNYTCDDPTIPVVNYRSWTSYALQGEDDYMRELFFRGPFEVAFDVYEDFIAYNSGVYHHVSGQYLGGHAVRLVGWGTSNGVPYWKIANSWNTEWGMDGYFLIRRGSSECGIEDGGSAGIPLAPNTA
Method: as §1, §2

[4] = target: T1, Cruzain; assay: biochemical; format: biochemical
Method: For pH dependence studies, cruzain was tested at 4 nM in 5 µM Z-Phe-Arg-AMC in 0.15 M citrate phosphate buffer at pH 5.5 and pH 8.0 with 5 mM DTT, and 0.01% Triton-X 100. Enzyme was added to wells of a 96-well microtiter plate containing substrate and inhibitor diluted in DMSO (0.5% final concentration), or DMSO control. Final inhibitor concentration ranged from 0.01 µM to 10 µM. Experiments were done in triplicate. Assays were run at 25°C in an automated microtiter plate spectrofluorometer, with robotic delivery of enzyme and readings every 1.52 seconds throughout the assay, before and after enzyme addition.
as §2

[5] = tested on: T. cruzi infection in BESM cells; assay: Dose-response against T. cruzi infection in BESM cells; format: cell-based, Trypanosoma cruzi CA-I/72; conditions: Trypanosoma cruzi, 72 h
Method: Monolayers were then infected with 1000 trypomastigotes/well of CA-I/72 T. cruzi for 2 h at 37°C. […] Cultures were then incubated for 72 h at 37°C in a humidified atmosphere with 5% CO2. Cultures were next fixed in 4% fresh paraformaldehyde in PBS, stained with DAPI, and counted under a fluorescence microscope (400×). Mean numbers of parasites per cell (±SE) were calculated as previously reported (n = 3-4 per concentration). Controls consisted of untreated wells and cultures similarly treated with 10 μM […] and 0.1 μM posaconazole.

[6] = target: T4, Cathepsin K (Homo sapiens, UniProt P43235); assay: Protease inhibition profiling (Reaction Biology Corp): Cathepsin K; format: biochemical
T4 construct: Reaction Biology Corp (screening service)
T4 sequence (P43235 115-329): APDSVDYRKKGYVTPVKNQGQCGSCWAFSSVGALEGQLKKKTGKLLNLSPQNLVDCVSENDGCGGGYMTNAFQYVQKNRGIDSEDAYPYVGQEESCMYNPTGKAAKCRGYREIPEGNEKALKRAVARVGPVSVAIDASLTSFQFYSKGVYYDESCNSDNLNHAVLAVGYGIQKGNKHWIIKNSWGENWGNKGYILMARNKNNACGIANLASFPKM

[7] = target: T5, cathepsin H (Homo sapiens, UniProt P09668); assay: Protease inhibition profiling (Reaction Biology Corp): cathepsin H; format: biochemical; conditions: panel of 70 proteases
T5 construct: Reaction Biology Corp (screening service)
T5 sequence (P09668 98-335): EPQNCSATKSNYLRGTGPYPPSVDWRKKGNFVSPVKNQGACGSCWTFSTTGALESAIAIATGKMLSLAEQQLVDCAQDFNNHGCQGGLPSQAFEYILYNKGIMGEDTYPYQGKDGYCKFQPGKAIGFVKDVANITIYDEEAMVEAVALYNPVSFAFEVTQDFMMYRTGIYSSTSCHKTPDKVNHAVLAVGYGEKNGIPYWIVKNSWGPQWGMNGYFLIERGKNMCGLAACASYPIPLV

[8] = Pharmacokinetic study (SRI international); conditions: in vivo
From the text: (§3) In this study, we have identified WRR-483, as an effective agent to treat acute Chagas' disease in a murine model. […] The crystal structure of WRR-483 complexed to cruzain was solved and established the binding mode of the inhibitor to the enzyme. This structure was highlighted by the formation of a salt bridge between the guanidine moiety of the inhibitor and Glu208, but in a different conformation when compared to another structure of cruzain bound to a different arginine-containing inhibitor. […] The no observed adverse effect level (NOAEL) is higher than 100 mg/kg. […] Further studies to understand the precise mechanism of trypanocidal action of WRR-483 and design of analogs with improved bioavailability are currently underway.

[9] = Toxicology study (SRI international); conditions: in vivo; read-out: no observed adverse effect level (NOAEL)
From the text: as §3

[10] = tested on: Entamoeba histolytica; conditions: human colonic xenograft model; cited from earlier work
[11] = tested on: EhCP1; conditions: cited from earlier work
[12] = pH 5.5, citrate phosphate buffer
[13] = pH 8.0, citrate phosphate buffer

T1 sequence (P25779 123-337 limits assumed): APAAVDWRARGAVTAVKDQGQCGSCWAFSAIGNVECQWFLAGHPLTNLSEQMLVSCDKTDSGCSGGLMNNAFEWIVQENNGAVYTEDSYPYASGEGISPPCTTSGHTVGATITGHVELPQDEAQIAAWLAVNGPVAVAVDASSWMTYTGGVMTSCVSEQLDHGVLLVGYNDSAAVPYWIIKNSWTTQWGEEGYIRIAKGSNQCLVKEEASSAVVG
T2 sequence (Q95PM0 entry or part of it): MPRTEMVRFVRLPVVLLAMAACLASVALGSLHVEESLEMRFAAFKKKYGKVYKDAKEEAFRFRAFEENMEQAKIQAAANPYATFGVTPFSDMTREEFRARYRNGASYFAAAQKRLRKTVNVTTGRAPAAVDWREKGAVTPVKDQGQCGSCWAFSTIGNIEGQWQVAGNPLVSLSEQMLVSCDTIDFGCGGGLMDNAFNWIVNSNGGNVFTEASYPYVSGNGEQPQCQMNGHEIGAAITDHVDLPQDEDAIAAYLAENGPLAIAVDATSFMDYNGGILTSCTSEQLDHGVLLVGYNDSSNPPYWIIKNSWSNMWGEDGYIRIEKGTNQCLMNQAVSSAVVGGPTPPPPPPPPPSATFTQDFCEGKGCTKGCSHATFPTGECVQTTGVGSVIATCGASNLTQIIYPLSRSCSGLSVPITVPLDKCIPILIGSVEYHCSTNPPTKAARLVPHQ

CN1CCN(C(=O)N[C@@H](CCCNC(=N)N)C(=O)N[C@H](/C=C/S(=O)(=O)c2ccccc2)CCc2ccccc2)CC1 [WRR-483]
k obs/[I] at 1 µM, Cruzain [1]: 4,800 s^-1 M^-1 and 4,800±480 s^-1 M^-1
k obs/[I] at 1 µM, Rhodesain ([2]; 100 mM sodium acetate pH 5.5, 5 mM DTT): No inhibition
inhibition of rhodesain ([2]; even at 10 µM concentration): no inhibition
inhibition of tbcatB (in words) [3]: weak inhibitors
inhibition at 1 µM ([3]; read-out: tbcatB % inhibition at 1 µM, 1 µM inhibitor): 26%
improvement of cruzain IC50 at pH 8.0 than at pH 5.5 ([4]; citrate phosphate buffer): ~10 fold
increase in the second-order rate of inactivation of cruzain, pH 8.0 vs pH 5.5 ([4]; citrate phosphate buffer): 4 fold
IC50 [4, 12]: 70 ± 30 nM
k inact/K i, cruzain [4, 12]: 14,000±240 s^-1 M^-1
IC50 [4, 13]: 8 ± 2 nM
k inact/K i, cruzain [4, 13]: 62,000±350 s^-1 M^-1
EC50 [5]: 200 nM
IC50, Cathepsin K [6]: No inhibition
inhibition of cathepsin H [7]: no inhibition
Vd ([8]; 10 mg dose iv): 15.1 L/kg
clearance ([8]; 10 mg dose iv): 27.5 mL/min/kg
half-life ([8]; 10 mg dose iv): 6.4 h
bioavailability ([8]; oral, read-out: oral bioavailability %F): < 1%
NOAEL [9]: > 100 mg/kg
reduction of amebic invasion [10]: 95%
inhibition of EhCP1 [11]: potent inhibitor
